Measurements reported in patent publication US6413517B1, “Identification of broadly reactive DR restricted epitopes” (Epimmune, Inc., priority 1997, dated 2002).
Where two headings read alike, the source gives them in different places.

Columns and labels:
[1] = biological target: T1, DRB1*0901 (DR9) (Homo sapiens, UniProt P01903+P01911, A100R/A103E/D57H/D86V/F55Y/F60I/F76Y/I96F/K127E/L162R/M171V/P40D/Q125H/Q99R/R33Q/R42F/S133A/S66N/T210M/V115G/W38K/Y107V/Y59G/Y89S); assay: biochemical; format: binding; conditions: Binding Capacity (IC 50% nM) Other Alleles DR9
T1 construct: Epstein-Barr virus (EBV) transformed homozygous cell lines were used as sources; endogenous in cells

[2] = biological target: T2, DRB1*0405 (DR4w15) (Homo sapiens, UniProt P01903+P01911, A100R/A169T/D86S/F76Y/I96L/K127E/L162R/M171V/N62H/P40V/Q125Y/R42H/S133A/S149N/S66Y/V115G/V209L/W38E); assay: biochemical; format: binding
T2 construct: Epstein-Barr virus (EBV) transformed homozygous cell lines were used as sources; endogenous in cells; host or cells: KT3 (EBV-transformed homozygous B cell line)

[3] = biological target: T3, DRB1*1501 (DR2w2b) (Homo sapiens, UniProt P01903+P01911); assay: biochemical; format: binding; conditions: read-out: Binding Capacity (IC 50% nM) Other Alleles DR2w2b
T3 construct: expressed in transfected cells; host or cells: transfected fibroblasts L466.1

[4] = biological target: T4, DRB1*0301 (DR3w17) (Homo sapiens, UniProt P01903+P01911, A100K/A102G/A103R/A169T/F55Y/I96L/K41T/L162R/M171V/P40S/Q125H/Q178H/Q39Y/R42S/S66N/T106N/T262R/W38E/Y61H); conditions: read-out: Binding Capacity (IC 50% nM) Other Alleles DR3
[5] = biological target: T5, DRB1*1302 (DR6w19) (Homo sapiens, UniProt P01903+P01911, A100E/A169T/K41T/L162R/M171V/P40S/Q125H/Q178H/Q39Y/Q99D/R42S/S66N/T262R/V115G/W38E/Y61H); assay: biochemical; format: binding
T5 construct: Epstein-Barr virus (EBV) transformed homozygous cell lines were used as sources; the source of Class II molecules the EBV transformed homozygous cell line H0301; endogenous in cells; host or cells: H0301 (EBV-transformed homozygous B cell line)

[6] = biological target: T4, DRB1*0301 (DR3w17); assay: biochemical; conditions: Binding Capacity (IC50% nM) DR3
[7] = biological target: T6, DRB1*0802 (DR8w2) (Homo sapiens, UniProt P01903+P01911, A100R/A103L/A169T/F76Y/H45Y/I96F/K41T/L162R/M171V/P40S/Q125H/Q178H/Q39Y/Q99D/R218S/R42G/S66Y/V115G/W38E); assay: biochemical; format: binding
T6 construct: Epstein-Barr virus (EBV) transformed homozygous cell lines were used as sources; endogenous in cells; host or cells: OLL (EBV-transformed homozygous B cell line)

[8] = biological target: T7, DRB1*0101 (DR1) (Homo sapiens, UniProt P01903+P01911, A100R/D57E/F55L/F60I/F76Y/I96L/L162R/M171V/P40L/Q125E/R42F/V115G/Y59C); assay: biochemical; format: binding; conditions: Binding Capacity (IC 50% nM) DR1,4,7 DRB1
T7 construct: Epstein-Barr virus (EBV) transformed homozygous cell lines were used as sources; endogenous in cells; host or cells: LG2 (EBV-transformed homozygous B cell line)

[9] = biological target: T8, DRB1*1101 (DR5w11) (Homo sapiens, UniProt P01903+P01911, A100R/A169T/A87E/I96F/K41T/L162R/M171V/P40S/Q125H/Q178H/Q39Y/Q99D/R42S/S66Y/T262R/V115G/W38E); assay: biochemical; format: binding
T8 construct: Epstein-Barr virus (EBV) transformed homozygous cell lines were used as sources; endogenous in cells; host or cells: SWEIG (EBV-transformed homozygous B cell line)
T8 sequence (P01903 26-254, other chains not shown): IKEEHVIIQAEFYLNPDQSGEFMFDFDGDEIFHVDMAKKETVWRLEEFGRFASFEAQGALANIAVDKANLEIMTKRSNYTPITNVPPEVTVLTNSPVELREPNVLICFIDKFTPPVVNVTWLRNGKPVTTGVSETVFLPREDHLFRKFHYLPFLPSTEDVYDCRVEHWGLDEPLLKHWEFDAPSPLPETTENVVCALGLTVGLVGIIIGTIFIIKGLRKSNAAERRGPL

[10] = biological target: T9, DRB1*0401 (DR4w4) (Homo sapiens, UniProt P01903+P01911, A100K/A169T/F76Y/I96L/K127E/L162R/M171V/N62H/P40V/Q125Y/R42H/S133A/S149N/S66Y/V115G/V209L/W38E); assay: biochemical; format: binding
T9 construct: Epstein-Barr virus (EBV) transformed homozygous cell lines were used as sources; endogenous in cells; host or cells: PREISS (EBV-transformed homozygous B cell line)

[11] = biological target: T10, DRB5*0101 (DR2w2a) (Homo sapiens, UniProt P01903+Q30154); assay: biochemical; format: binding
T10 construct: Epstein-Barr virus (EBV) transformed homozygous cell lines were used as sources; endogenous in cells; host or cells: GM3107 (EBV-transformed homozygous B cell line)

[12] = biological target: T11, DRB1*0701 (DR7) (Homo sapiens, UniProt P01903+P01911, A100R/A102G/A103Q/D57E/D86V/E43K/F76Y/K127E/L162R/M171V/P40G/Q125H/Q99D/R33Q/R42Y/R54Q/S133A/S66F/T210M/V115G/Y107V/Y59L/Y89S); assay: biochemical; format: binding; conditions: Binding Capacity (IC 50% nM) DR1,4,7 DR7
T11 construct: Epstein-Barr virus (EBV) transformed homozygous cell lines were used as sources; endogenous in cells; host or cells: PITOUT (EBV-transformed homozygous B cell line)

[13] = biological target: T12, DRB1*1201 (DR5w12) (Homo sapiens, UniProt P01903+P01911, A100R/A169T/D57E/D86V/F55L/H45Y/K41T/L162R/M171V/P40S/Q125H/Q178H/Q39Y/Q99D/R42G/S66L/T262R/V114A/V67L/W38E/Y59H/Y61H/Y89S); assay: biochemical; format: binding
T12 construct: Epstein-Barr virus (EBV) transformed homozygous cell lines were used as sources; endogenous in cells; host or cells: Herluf (EBV-transformed homozygous B cell line)

[14] = Binding Capacity (IC 50% nM) Other Alleles DR6w19
[15] = read-out: Binding Capacity (IC 50% nM) Other Alleles DR5w11
[16] = Binding Capacity (IC50% nM) DR5w12
[17] = read-out: Binding Capacity (IC 50% nM) Other Alleles DR5w12
[18] = Binding Capacity (IC 50% nM) Other Alleles DR4w15
[19] = Binding Capacity (IC 50% nM) Other Alleles DR8w2
[20] = Binding Capacity (IC 50% nM) DR1,4,7 DR4w4
[21] = Binding Capacity (IC 50% nM) Other Alleles DR2w2a

CC[C@H](C)[C@H](NC(=O)[C@H](CO)NC(=O)[C@H](CO)NC(=O)[C@H](CC(N)=O)NC(=O)[C@@H](NC(=O)[C@@H](NC(=O)[C@H](CC(N)=O)NC(=O)[C@H](Cc1ccccc1)NC(=O)[C@@H](N)C(C)C)C(C)C)C(C)C)C(=O)NCC(=O)N[C@@H](CC(C)C)C(=O)N[C@H](C(=O)N[C@@H](CCSC)C(=O)N[C@H](C(=O)N[C@@H](CC(C)C)C(=O)O)C(C)C)[C@@H](C)CC [Peptide F107.23]
IC50 [1]: < 1000 nM
IC50 ([2]; read-out: Binding Capacity (IC 50% nM) Other Alleles DR4w15): > 1000 nM
IC50 [3]: > 1000 nM
IC50 [4]: > 1000 nM
IC50 [5, 14]: < 1000 nM
IC50 [6]: > 10000 nM
IC50 ([7]; Binding Capacity (IC50% nM) DR8w2): > 10000 nM
IC50 ([7]; read-out: Binding Capacity (IC 50% nM) Other Alleles DR8w2): > 1000 nM
IC50 [8]: < 1000 nM
IC50 ([9]; Binding Capacity (IC50% nM) DR5w11): > 10000 nM
IC50 [9, 15]: > 1000 nM
IC50 ([10]; read-out: Binding Capacity (IC 50% nM) DR1,4,7 DR4w4): > 1000 nM
IC50 ([11]; Binding Capacity (IC50% nM) DR2w2a): > 10000 nM
IC50 ([11]; read-out: Binding Capacity (IC 50% nM) Other Alleles DR2w2a): > 1000 nM
IC50 [12]: < 1000 nM
IC50 [13, 16]: > 10000 nM
IC50 [13, 17]: > 1000 nM

CC(C)C[C@H](NC(=O)CNC(=O)[C@H](C)NC(=O)[C@H](CC(C)C)NC(=O)[C@@H](NC(=O)[C@H](CO)NC(=O)[C@@H](NC(=O)[C@H](C)NC(=O)[C@H](CC(C)C)NC(=O)[C@H](CCCCN)NC(=O)[C@H](Cc1ccc(O)cc1)NC(=O)[C@@H](N)CCCCN)[C@@H](C)O)C(C)C)C(=O)N[C@@H](CC(C)C)C(=O)NCC(=O)N[C@@H](CC(N)=O)C(=O)O [Peptide F107.09]
IC50 [1]: < 1000 nM
IC50 [2, 18]: < 1000 nM
IC50 [3]: > 1000 nM
IC50 [4]: > 1000 nM
IC50 [5, 14]: < 1000 nM
IC50 [6]: > 10000 nM
IC50 [7, 19]: < 1000 nM
IC50 [8]: < 1000 nM
IC50 ([9]; Binding Capacity (IC 50% nM) Other Alleles DR5w11): < 1000 nM
IC50 [10, 20]: < 1000 nM
IC50 [11, 21]: < 1000 nM
IC50 [12]: < 1000 nM
IC50 [13, 16]: > 10000 nM
IC50 [13, 17]: > 1000 nM

CC(C)C[C@H](NC(=O)[C@H](Cc1c[nH]c2ccccc12)NC(=O)[C@@H](NC(=O)[C@H](Cc1ccccc1)NC(=O)[C@@H](NC(=O)[C@@H]1CCCN1C(=O)[C@H](CC(C)C)NC(=O)[C@H](C)NC(=O)[C@@H]1CCCN1C(=O)[C@H](CC(C)C)NC(=O)[C@H](Cc1ccccc1)NC(=O)[C@H](Cc1ccccc1)NC(=O)[C@H](CCC(N)=O)NC(=O)[C@H](CO)NC(=O)[C@@H](NC(=O)[C@@H](N)CC(C)C)[C@@H](C)O)C(C)C)[C@@H](C)O)C(=O)O [Peptide 1136.16]
IC50 [1]: < 1000 nM
IC50 [2, 18]: < 1000 nM
IC50 [3]: > 1000 nM
IC50 [4]: > 1000 nM
IC50 ([5]; read-out: Binding Capacity (IC 50% nM) Other Alleles DR6w19): > 1000 nM
IC50 [6]: > 10000 nM
IC50 [7, 19]: < 1000 nM
IC50 [8]: < 1000 nM
IC50 [9, 15]: > 1000 nM
IC50 [10, 20]: < 1000 nM
IC50 [11, 21]: < 1000 nM
IC50 [12]: < 1000 nM
IC50 [13, 17]: > 1000 nM
